# Non-standard residues stand in square brackets, D forms with d. Residues, ends and D or L forms follow the SMILES beside them. Mpa = O=C(O)CCS
# Test system: spontaneously hypertensive rat (SHR)
# Experiment: Antihypertensive test in conscious spontaneously hypertensive rats: arterial BP and pressor/depressor responses to i.v. angiotensin I and bradykinin after oral dosing
# Type: in vivo
# Settings: male SHR, 50 mg/kg of body weight
# Text: Male SHR of the Okamoto-Aoki strain (purchased from Charles River Lakeview, Boston, Mass.) ranging in weight between 280 and 370 g are anesthetized with diethyl ether. Their left femoral arteries and veins are cannulated with polyethylene tubing of the appropriate size. Each animal is then placed in a rubber mesh jacket which is secured with four towel clamps. The animal is suspended via the towel clamps from a bar and allowed to recover from the anesthesia. The arterial cannula is connected to a Statham pressure transducer (Model P23, Gould Statham Instruments, Hato Rey, Porto Rico) which, in turn, is attached to a polygraph for recording arterial blood pressure (BP) and pulse rate.
# When the BP has stabilized, the intravenous injection of the agonists, angiotensin I (AI) or bradykinin (B) is initiated. Each of the agonists is prepared daily from refrigerated stock solution (using distilled water as the diluent), and injected in a volume of 1 ml/kg (using physiological saline as the diluent) at the following doses: AI, 0.125 μg/kg and B, 5 μg/kg.
# Enough time is allowed for the BP to return to preinjection levels before the next agonist is given. A dose of the compound to be tested is given orally seven to ten minutes after the injection of the last agonist. Four rats are used and the test compound is given by gastric gavage in a volume of 5 ml/kg of body weight. Heart rate and BP are measured at 5, 10, 15, 30, 45 and 60 minutes and at hourly intervals thereafter for a period of at least four hours after drug administration. At one and two hours after the test compound has been given, AI and B are injected again at the same concentration and in the same order as during the control period.
smiles,measurement,setting,value
CC(C)C[C@H](NC(=O)[C@H](Cc1c[nH]cn1)NC(=O)[C@@H]1CCCN1C(=O)CCS)C(=O)O [N-[N-[1-(3-Mercapto-1-oxopropyl)prolyl]histidyl]leucine] ([Mpa]PHL-OH),decrease in mean arterial BP,"oral (gastric gavage), measured two hours after administration",8%
same,reduction in angiotensin I response on BP,"oral, angiotensin I 0.125 μg/kg i.v.",61%
same,potentiation of bradykinin response,"oral, bradykinin 5 μg/kg i.v.",564%
